According to PubChem BioAssay AID330 (DTP/NCI, 2004):
“And” between values parts separate entries of the source, which are not always exact repeats. Equal values may be shown once. Toxic doses and inconclusive results are not listed. Peptide text beside a SMILES is read from it. * marks the point of attachment. Cbz = O=C(OCc1ccccc1)*; Bn = c1ccc(C*)cc1

Tested on: P388 leukemia ip, CD2F1 mice, survival T/C
Experiment: NCI In Vivo Anticancer Drug Screen. Data for tumor model P388 Leukemia (intraperitoneal) in CD2F1 (CDF1) mice
Conditions: endpoint: median survival time, higher = longer survival
Procedure, shortened: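 Mice carrying the transplanted tumor received test compound or vehicle. Survival was recorded in each group, and the value is the treated-group measurement divided by that of the vehicle-treated control group.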

[1] = dose: 60.0 mg/kg/injection, schedule: Q01DX005 (ip), vehicle: saline with Tween-80
[2] = dose: 120.0 mg/kg/injection, schedule: Q01DX005 (ip), vehicle: saline with Tween-80
[3] = dose: 240.0 mg/kg/injection, schedule: Q01DX005 (ip), vehicle: saline with Tween-80
[4] = dose: 50.0 mg/kg/injection, schedule: Q01DX009 (ip), vehicle: Klucel (hydroxypropylcellulose) (HPC)
[5] = dose: 100.0 mg/kg/injection, schedule: Q01DX009 (ip), vehicle: Klucel (hydroxypropylcellulose) (HPC)
[6] = dose: 200.0 mg/kg/injection, schedule: Q01DX009 (ip), vehicle: Klucel (hydroxypropylcellulose) (HPC)
[7] = dose: 50.0 mg/kg/injection, schedule: Q01DX005 (ip), vehicle: saline with Tween-80
[8] = dose: 100.0 mg/kg/injection, schedule: Q01DX005 (ip), vehicle: saline with Tween-80
[9] = dose: 12.5 mg/kg/injection, schedule: Q01DX009 (ip), vehicle: Klucel (hydroxypropylcellulose) (HPC)
[10] = dose: 25.0 mg/kg/injection, schedule: Q01DX009 (ip), vehicle: Klucel (hydroxypropylcellulose) (HPC)
[11] = dose: 50.0 mg/kg/injection, schedule: Q01DX009 (ip), vehicle: saline with Tween-80
[12] = dose: 100.0 mg/kg/injection, schedule: Q01DX009 (ip), vehicle: saline with Tween-80
[13] = dose: 200.0 mg/kg/injection, schedule: Q01DX009 (ip), vehicle: saline with Tween-80
[14] = dose: 100.0 mg/kg/injection, schedule: Q01DX001 (ip), vehicle: saline with Tween-80
[15] = dose: 200.0 mg/kg/injection, schedule: Q01DX001 (ip), vehicle: saline with Tween-80
[16] = dose: 50.0 mg/kg/injection, schedule: Q01DX005 (ip), vehicle: Klucel (hydroxypropylcellulose) (HPC)
[17] = dose: 100.0 mg/kg/injection, schedule: Q01DX005 (ip), vehicle: Klucel (hydroxypropylcellulose) (HPC)

## COC(=O)C1=C(C(=O)OC)NC2=C(C=N1)CCC2
[1]
  T/C: 102 % of control
[2]
  T/C: 94 % of control
[3]
  T/C: 91 % of control

## COC(=O)C12CC=CCC1(C(=O)OC)CC=CC2 (stereo not given)
[4]
  T/C: 101 % of control
[5]
  T/C: 100 % of control
[6]
  T/C: 102 % of control

## CC(C)(NCc1ccccc1)C(=O)OC(C)(C)C(=O)NCc1ccccc1
dose: 25.0 mg/kg/injection, schedule: Q01DX005 (ip), vehicle: saline with Tween-80
  T/C: 100 % of control and 103 % of control
[7]
  T/C: 95 % of control and 108 % of control
[8]
  T/C: 95 % of control

## C[As](C)SCC(N)C(=O)O (stereo not given)
[9]
  T/C: 107 % of control
[10]
  T/C: 106 % of control
[4]
  T/C: 103 % of control and 110 % of control

## CSC(=N\N=C(/C)c1ccc(Br)cc1)/N=C/N(C)C
[1]
  T/C: 100 % of control
[2]
  T/C: 102 % of control
[3]
  T/C: 102 % of control

## COc1ccc(C2OC3=C(Nc4cc(C)c(C)cc4N3)C2=O)cc1 (stereo not given)
dose: 60.0 mg/kg/injection, schedule: Q01DX005 (ip), vehicle: Klucel (hydroxypropylcellulose) (HPC)
  T/C: 89 % of control
dose: 120.0 mg/kg/injection, schedule: Q01DX005 (ip), vehicle: Klucel (hydroxypropylcellulose) (HPC)
  T/C: 89 % of control

## COc1ccc(CCNC(=O)Cc2ccc3cc(OC)c(OC)cc3c2)cc1OC
[11]
  T/C: 120 % of control
[12]
  T/C: 100 % of control
[13]
  T/C: 90 % of control

## O=c1c(=NO)c(=O)c2ccccc12
[14]
  T/C: 103 % of control
[15]
  T/C: 110 % of control

## O=C(c1ccc(Cl)cc1)c1nnc(Cl)s1
[11]
  T/C: 110 % of control
[12]
  T/C: 118 % of control
[13]
  T/C: 101 % of control

## COC1CC(OC2CCC3(C)C(=CCC4C3C(OC(C)=O)C(OC(=O)CC(C)C)C3(C)C(C(C)=O)CCC43O)C2)OC(C)C1OC1CC(OC)C(OC2CC(OC)C(OC3OC(C)C(O)C(OC)C3O)C(C)O2)C(C)O1 (stereo not given)
dose: 4.13 mg/kg/injection, schedule: Q01DX005 (ip), vehicle: Klucel (hydroxypropylcellulose) (HPC)
  T/C: 87 % of control
dose: 8.25 mg/kg/injection, schedule: Q01DX005 (ip), vehicle: Klucel (hydroxypropylcellulose) (HPC)
  T/C: 101 % of control

## CCCCOC(=O)NC(=O)c1cc2cc(Cl)cc(Cl)c2oc1=O
[7]
  T/C: 90 % of control
[8]
  T/C: 91 % of control

## O=c1oc2ccccc2c(O)c1C(c1ccc2c(c1)OCO2)c1c(O)c2ccccc2oc1=O
dose: 15.0 mg/kg/injection, schedule: Q01DX005 (ip), vehicle: saline with Tween-80
  T/C: 98 % of control
dose: 30.0 mg/kg/injection, schedule: Q01DX005 (ip), vehicle: saline with Tween-80
  T/C: 96 % of control

## CCN(CC)CCN(C)C(C)C(=O)Nc1ccccc1Cl (stereo not given)
dose: 60.0 mg/kg/injection, schedule: Q01DX005 (ip), vehicle: saline
  T/C: 105 % of control
dose: 120.0 mg/kg/injection, schedule: Q01DX005 (ip), vehicle: saline
  T/C: 100 % of control

## Clc1ccc(C2=CSC3=NCCN23)cc1
[9]
  T/C: 111 % of control
[10]
  T/C: 110 % of control

## CCCCN=Cc1ccccc1O.CCCCN=Cc1ccccc1O.[Zn]
[4]
  T/C: 98 % of control
[5]
  T/C: 112 % of control

## CC(C)CC(NC(=O)C(CSCc1ccccc1)NC(=O)OCc1ccccc1)C(N)=O (stereo not given) (Cbz-Cys(Bn)-Leu-NH2; configuration not given here)
dose: 6.25 mg/kg/injection, schedule: Q01DX005 (ip), vehicle: Klucel (hydroxypropylcellulose) (HPC)
  T/C: 102 % of control
dose: 12.5 mg/kg/injection, schedule: Q01DX005 (ip), vehicle: Klucel (hydroxypropylcellulose) (HPC)
  T/C: 86 % of control
dose: 25.0 mg/kg/injection, schedule: Q01DX005 (ip), vehicle: Klucel (hydroxypropylcellulose) (HPC)
  T/C: 86 % of control

## Nc1ncnc2c1ncn2C1OCC(O)C1O (stereo not given)
dose: 50.0 mg/kg/injection, schedule: Q01DX009 (ip), vehicle: suspension in saline
  T/C: 119 % of control
dose: 100.0 mg/kg/injection, schedule: Q01DX009 (ip), vehicle: suspension in saline
  T/C: 112 % of control

## O=CNC(Cc1ccccc1N(CCCl)CCCl)C(=O)O (stereo not given)
dose: 5.0 mg/kg/injection, schedule: Q04DX003 (ip), vehicle: other
  T/C: 198 % of control
dose: 5.0 mg/kg/injection, schedule: Q04DX003 (ip), vehicle: water
  T/C: 154 % of control
dose: 10.0 mg/kg/injection, schedule: Q04DX003 (ip), vehicle: other
  T/C: 261 % of control
dose: 10.0 mg/kg/injection, schedule: Q04DX003 (ip), vehicle: water
  T/C: 187 % of control
dose: 20.0 mg/kg/injection, schedule: Q04DX003 (ip), vehicle: other
  T/C: 293 % of control
dose: 20.0 mg/kg/injection, schedule: Q04DX003 (ip), vehicle: water
  T/C: 309 % of control
dose: 40.0 mg/kg/injection, schedule: Q04DX003 (ip), vehicle: water
  T/C: 113 % of control

## COc1cc(OC2OC(COC3OC(CO)C(O)C(O)C3O)C(O)C(O)C2O)c2c(c1)C(=O)c1cc(C)cc(O)c1C2=O (stereo not given)
dose: 25.0 mg/kg/injection, schedule: Q01DX005 (ip), vehicle: water
  T/C: 100 % of control
dose: 50.0 mg/kg/injection, schedule: Q01DX005 (ip), vehicle: water
  T/C: 98 % of control
dose: 100.0 mg/kg/injection, schedule: Q01DX005 (ip), vehicle: water
  T/C: 98 % of control
dose: 200.0 mg/kg/injection, schedule: Q01DX005 (ip), vehicle: water
  T/C: 96 % of control

## Cn1c(-c2ccccc2Cl)cc(C=O)c1-c1ccccc1
[14]
  T/C: 99 % of control
[15]
  T/C: 93 % of control
dose: 400.0 mg/kg/injection, schedule: Q01DX001 (ip), vehicle: saline with Tween-80
  T/C: 93 % of control

## CSc1nc(NN)c2cnn(C3CCCCO3)c2n1 (stereo not given)
dose: 100.0 mg/kg/injection, schedule: Q04DX002 (ip), vehicle: saline with Tween-80
  T/C: 100 % of control
dose: 200.0 mg/kg/injection, schedule: Q04DX002 (ip), vehicle: saline with Tween-80
  T/C: 96 % of control
dose: 400.0 mg/kg/injection, schedule: Q04DX002 (ip), vehicle: saline with Tween-80
  T/C: 94 % of control

## O=C1c2ccccc2C(=O)N1N1CC1c1ccccc1 (stereo not given)
[7]
  T/C: 106 % of control
[8]
  T/C: 101 % of control
dose: 200.0 mg/kg/injection, schedule: Q01DX005 (ip), vehicle: saline with Tween-80
  T/C: 97 % of control

## O=[N+]([O-])c1ccccc1C(Nc1nncs1)Nc1nncs1
[16]
  T/C: 102 % of control
[17]
  T/C: 102 % of control and 121 % of control

## CCOC(=O)/C(=C/Nc1ccc(O)cc1)NC(=O)c1ccccc1
[4]
  T/C: 103 % of control and 104 % of control
[5]
  T/C: 94 % of control and 97 % of control
[6]
  T/C: 118 % of control and 87 % of control
dose: 400.0 mg/kg/injection, schedule: Q01DX009 (ip), vehicle: Klucel (hydroxypropylcellulose) (HPC)
  T/C: 89 % of control

## Cc1ncc(C)c2c([N+](=O)[O-])cccc12
[4]
  T/C: 106 % of control
[5]
  T/C: 110 % of control
[6]
  T/C: 96 % of control

## Cc1cc(C)c(S(=O)(=O)Sc2nnnn2-c2ccccc2)c(C)c1
[4]
  T/C: 100 % of control
[5]
  T/C: 105 % of control
[6]
  T/C: 95 % of control

## CCN(CC)CCOCCOC1(C)CCC(C(C)C)CC1 (stereo not given)
dose: 50.0 mg/kg/injection, schedule: Q01DX005 (ip), vehicle: suspension in saline
  T/C: 108 % of control
dose: 100.0 mg/kg/injection, schedule: Q01DX005 (ip), vehicle: suspension in saline
  T/C: 106 % of control

## CCC(C)N(CC)CCNc1cc(OC)cc2cccnc12 (stereo not given)
dose: 50.0 mg/kg/injection, schedule: Q01DX005 (ip), vehicle: saline
  T/C: 103 % of control
dose: 100.0 mg/kg/injection, schedule: Q01DX005 (ip), vehicle: saline
  T/C: 99 % of control

## CCCCCCC1(/C=C\c2ccccc2Cl)OCCO1
[4]
  T/C: 103 % of control
[5]
  T/C: 94 % of control
[6]
  T/C: 108 % of control

## Cc1ccc2c(c1)C(=O)C(CN1CCOCC1)CCO2 (stereo not given)
dose: 100.0 mg/kg/injection, schedule: Q04DX003 (ip), vehicle: saline
  T/C: 100 % of control
dose: 200.0 mg/kg/injection, schedule: Q04DX003 (ip), vehicle: saline
  T/C: 102 % of control
dose: 400.0 mg/kg/injection, schedule: Q04DX003 (ip), vehicle: saline
  T/C: 96 % of control

## Cc1nnc2c3nccnc3c(N)nn12
[1]
  T/C: 96 % of control
[2]
  T/C: 104 % of control
[3]
  T/C: 104 % of control

## CCOC(=O)C1=C(C)NC(=O)NC1c1cc(OC)c(OC)c(OC)c1 (stereo not given)
[16]
  T/C: 98 % of control
[17]
  T/C: 96 % of control
dose: 200.0 mg/kg/injection, schedule: Q01DX005 (ip), vehicle: Klucel (hydroxypropylcellulose) (HPC)
  T/C: 94 % of control
